Measurements reported in patent US20160235778A1, “COMPOSITIONS CONTAINING PUFA, URIDINE AND CHOLINE AND METHODS OF USE THEREOF” (MASSACHUSETTS INSTITUTE OF TECHNOLOGY, priority 2014, published 2016).

Legend:
[1] = tested on: brain phospholipids; assay: Brain phospholipid levels in gerbils given UMP diet and/or PUFA by gavage; format: in vivo, gerbil; set-up: PC / PE / PS / PI: unit not given here
Description: Control standard diet (Table 4) consisted of Teklad Global 16% protein rodent diet (Harlan Teklad, Madison, Wis.), which contained 0.1% choline chloride (CC), corresponding to a daily dose of 50 mg/kg/day. UMP was provided as 0.5% UMP·2Na^+ weight/weight, added to the control diet, also prepared by Harlan Teklad, corresponding to 240 mg/kg/day UMP. DHA was administered as 300 mg/kg/day in 200 microliter (mcL)/day 5% Arabic Gum solution, while groups not receiving DHA were administered vehicle (5% Arabic Gum) alone. DHA was provided by Nu-Chek Prep (Elysian, MN) and UMP by Numico (Wagenigen, NL).
Gerbils were anesthetized with ketamine and xylazine (80 and 10 mg/kg bwt, i.p.) and sacrificed by immersing the head into liquid nitrogen for 2 min, followed by decapitation. Brains were immediately and quickly (30 seconds) removed using a bone rongeur and stored at −80° C.
Frozen brain hemispheres were weighed and homogenized in 100 volumes of ice-cold deionized water using a tissue degrader (Polytron PT 10-35, Kinematica AG, Switzerland), then analyzed as described in Example 1.
Protein in whole brain homogenate sample was measured for using bicinchoninic acid reagent (Perkin Elmer, Norwalk, Conn., USA). DNA was measured by measuring 460 nm emission of samples on a fluorometer in the presence of bisbenzimidizole, a fluorescent dye known as Hoechst H 33258 (American Hoechst Corporation), which has an excitation maximum at 356 nm and an emission maximum of 458 when bound to DNA.
Male gerbils weighing 80-100 g were divided into 4 groups of 8 gerbils and administered the supplements depicted in Table 1:
Adult gerbils were administered control standard diet (Table 4) with our without 0.5% UMP and/or 300 mg/kg/day DHA, EPA, or AA. Groups not receiving DHA were administered vehicle (5% Arabic Gum) alone.

[2] = tested on: brain CDP-choline; assay: Brain CDP-choline and CDP-ethanolamine levels (HPLC); format: in vivo; settings: gerbil
Description: FIG. 5A-B. Effects of DHA on brain CDP-choline levels (FIG. 5A) and CDP-ethanolamine levels (FIG. 5B). Groups of 8 gerbils received either a control or a UMP-containing diet, and, by gavage, DHA (in a vehicle of 5% gum Arabic solution) or 5% gum Arabic solution alone for 28 days. On the 29th day brains were harvested and assayed for CDP-choline. Data are presented as means±SEM. Statistical analysis was performed using one- or two-way ANOVA followed by Tukey test. a: P<0.05 when compared with the values for control diet plus vehicle group; b: P<0.05 when compared with values for UMP diet plus vehicle group.
Aliquots (2 ml) of the upper (aqueous) phase were dried under a vacuum, reconstituted, and injected into an HPLC. The dried samples were reconstituted in 100-200 μl water and were analyzed by HPLC on an anion exchange column (Alltech Hypersil APS-2, […], 250×4.6 mm). CDP-choline was eluted with a linear gradient of buffers A (H3PO4, 1.75 mM, pH 2.9) and B (NaH2PO2, 500 mM, pH 4.5) from 0 to 100% B over period of 30 min. With this system, CDP-choline was resolved from closely co-eluting substances such as UMP in an isocratic system over a period of 40 min. The retention time for CDP-choline was 9.5 min. The column was washed with buffer B at the end of each experiment and every several days to remove retained nucleotides. Individual nucleotide peaks were detected by UV absorption at 280 nm and were identified by comparison with the positions of authentic standards, as well as by the addition of nucleotide standards to samples.

[3] = tested on: hippocampal dendritic spines; assay: Hippocampal dendritic spine numbers in pups of treated pregnant and nursing mothers; format: in vivo; settings: rat pups, mothers treated 10 days before parturition and 20 days while nursing
From the text: In another study, pregnant rats were allowed to consume ad libitum, for 10 days before parturition and 20 days while nursing, either a choline-containing control diet or this diet supplemented with uridine as UMP; half of each group also received DHA or its diluent daily, by gavage. Pups were then sacrificed and brain slices were examined to determine numbers of hippocampal dendritic spines.

[4] = tested on: SHSY-5Y cells; assay: 14C-choline incorporation into phospholipids in SHSY-5Y cells; format: cell-based, human
Description: SHSY-5Y cells were grown to near confluency in DMEM+10% FBS in 35 mm dishes. Cells were incubated for 18 hr in serum-free DMEM+1% FBS containing 30 μM choline+/−10 μM of DHA, arachidonic acid, or palmitic acid. Cells were then labeled, and labeled phospholipids were quantified as described for Example 1.
DHA was dissolved in ethanol to a […] concentration and frozen in 10 microliter aliquots at −80° C. For each experiment, one aliquot was diluted in ethanol to 10 micromolar; the volume giving the desired final solution in incubation medium was mixed with an equal volume of BSA solution (1 gm/ml).
The effect of arachidonic acid on phospholipid synthesis in SHSY-5Y cells was further characterized as described for omega-3 fatty acids and PC-12 cells in Example 2. […] Thus, omega-6 fatty acids stimulate synthesis of a variety of phospholipids in a dose-dependent manner.

[5] = gerbil brain, 3 weeks, 0.5% UMP and/or 300 mg/kg/day PUFA, Table 6
[6] = gerbil brain, 4 weeks, normalized to DNA levels, mean +/- SEM
[7] = gerbil brain, 4 weeks, normalized to protein levels, mean +/- SEM
[8] = gerbil brain, Table 5 part B, One week
[9] = gerbil brain, Table 5 part B, Three weeks
[10] = gerbil, Table 5A study, vs control

CCC=CCC=CCC=CCC=CCC=CCCCC(=O)O [EPA, 5,8,11,14,17-eicosapentaenoic acid]
PC [1, 5]: 125 ± 8
PE [1, 5]: 76 ± 4
PI [1, 5]: 22 ± 2
PS [1, 5]: 31 ± 1
SM [1, 5]: 26 ± 3
Total PL [1, 5]: 347 ± 19
brain phospholipid levels, in words ([1]; gerbil, 3 weeks): increased phospholipid levels

O=c1ccn([C@@H]2O[C@H](COP(=O)(O)O)[C@@H](O)[C@H]2O)c(=O)[nH]1 [UMP, uridine monophosphate]
PC [1, 5]: 131 ± 2
PE [1, 5]: 70 ± 1
PI [1, 5]: 16 ± 1
PS [1, 5]: 29 ± 1
SM [1, 5]: 22 ± 1
Total PL [1, 5]: 332 ± 5
PC [1, 6]: 368 ± 10
PE [1, 6]: 195 ± 9
PI [1, 6]: 78 ± 6
PS [1, 6]: 86 ± 7
SM [1, 6]: 111 ± 4
Total PL [1, 6]: 878 ± 18
PC [1, 7]: 171 ± 8
PE [1, 7]: 84 ± 8
PI [1, 7]: 31 ± 2
PS [1, 7]: 35 ± 3
SM [1, 7]: 52 ± 5
Total PL [1, 7]: 367 ± 22
increase in levels of total phospholipids ([1]; gerbil brain, 4 weeks, vs control group): 5%
PtdCho ([1]; gerbil brain, Table 5 part A): 171 ± 8 nmol/mg prt
PtdEtn ([1]; gerbil brain, Table 5 part A): 64 ± 8 nmol/mg prt
PtdIns ([1]; gerbil brain, Table 5 part A): 31 ± 2 nmol/mg prt
PtdSer ([1]; gerbil brain, Table 5 part A): 35 ± 3 nmol/mg prt
SM ([1]; gerbil brain, Table 5 part A): 52 ± 5 nmol/mg prt
Total PL ([1]; gerbil brain, Table 5 part A): 367 ± 22 nmol/mg prt
PtdCho [1, 8]: 154 ± 6 nmol/mg prt
PtdEtn [1, 8]: 63 ± 4 nmol/mg prt
PtdIns [1, 8]: 20 ± 4 nmol/mg prt
PtdSer [1, 8]: 39 ± 1 nmol/mg prt
SM [1, 8]: 49 ± 3 nmol/mg prt
Total PL [1, 8]: 390 ± 21 nmol/mg prt
PtdCho [1, 9]: 199 ± 5 nmol/mg prt
PtdEtn [1, 9]: 87 ± 4 nmol/mg prt
PtdIns [1, 9]: 25 ± 1 nmol/mg prt
PtdSer [1, 9]: 42 ± 2 nmol/mg prt
SM [1, 9]: 70 ± 4 nmol/mg prt
Total PL [1, 9]: 479 ± 6 nmol/mg prt
effect on brain phospholipids after 1 week of treatment ([1]; gerbil, 1 week): no significant effects
increase in brain level of PC [1, 10]: 13%
increase in brain level of PE [1, 10]: 29%
increase in brain level of PI [1, 10]: 48%
increases in brain phospholipids, in words ([1]; gerbil, treatment for 3 weeks): smaller but still significant increases
brain CDP-choline levels, in words ([2]; FIG. 5A): decreased
brain CDP-ethanolamine levels, in words ([2]; FIG. 5B): decreased
Increase over control (%) [3]: 28%
Number of spines [3]: 68

CCCCCC=CCC=CCC=CCC=CCCCC(=O)O [arachidonic acid, 5,8,11,14-eicosatetraenoic acid]
phospholipid synthesis ([4]; 18 h with 10 μM fatty acid, FIG. 3A): enhanced
synthesis of total phospholipids, PC and phosphatidylethanolamine ([4]; range of dosages, dose-dependent, FIG. 3B): increased synthesis
brain phospholipid levels, in words ([1]; gerbil, 3 weeks): increased phospholipid levels
